Here are results for 13 molecules from ChEMBL document CHEMBL3991601, “The target landscape of clinical kinase drugs” (Science, 2017).

Calls of active or inactive are those of the source. For most assays here, no stated cut-off is given here; in the data, actives have a measured Kd and inactives only a lower limit.

Assay [1] deals with T1, Tyrosine-protein kinase Tec (Homo sapiens, UniProt P42680).
T1 sequence (P42680 whole entry): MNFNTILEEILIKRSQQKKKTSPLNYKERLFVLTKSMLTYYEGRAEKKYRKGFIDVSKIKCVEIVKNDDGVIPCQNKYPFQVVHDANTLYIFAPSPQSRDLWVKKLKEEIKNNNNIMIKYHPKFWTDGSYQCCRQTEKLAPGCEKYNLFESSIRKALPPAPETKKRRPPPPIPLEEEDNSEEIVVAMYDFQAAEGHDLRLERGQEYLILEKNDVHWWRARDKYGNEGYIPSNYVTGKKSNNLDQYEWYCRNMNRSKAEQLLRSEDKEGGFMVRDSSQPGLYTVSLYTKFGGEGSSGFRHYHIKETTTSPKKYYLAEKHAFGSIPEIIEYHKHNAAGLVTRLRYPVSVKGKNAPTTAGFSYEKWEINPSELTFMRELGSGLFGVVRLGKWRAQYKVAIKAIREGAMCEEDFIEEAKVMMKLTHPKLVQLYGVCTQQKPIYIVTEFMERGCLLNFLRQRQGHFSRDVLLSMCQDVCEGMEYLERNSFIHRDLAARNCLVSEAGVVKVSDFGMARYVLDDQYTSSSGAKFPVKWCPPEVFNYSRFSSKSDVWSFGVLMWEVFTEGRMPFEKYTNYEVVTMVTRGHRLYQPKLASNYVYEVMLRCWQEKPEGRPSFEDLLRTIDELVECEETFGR

The target in assay [2] is Mitogen-activated protein kinase kinase kinase kinase 5 (Homo sapiens, UniProt Q9Y4K4).
Chain of Mitogen-activated protein kinase kinase kinase kinase 5 (Q9Y4K4 whole entry): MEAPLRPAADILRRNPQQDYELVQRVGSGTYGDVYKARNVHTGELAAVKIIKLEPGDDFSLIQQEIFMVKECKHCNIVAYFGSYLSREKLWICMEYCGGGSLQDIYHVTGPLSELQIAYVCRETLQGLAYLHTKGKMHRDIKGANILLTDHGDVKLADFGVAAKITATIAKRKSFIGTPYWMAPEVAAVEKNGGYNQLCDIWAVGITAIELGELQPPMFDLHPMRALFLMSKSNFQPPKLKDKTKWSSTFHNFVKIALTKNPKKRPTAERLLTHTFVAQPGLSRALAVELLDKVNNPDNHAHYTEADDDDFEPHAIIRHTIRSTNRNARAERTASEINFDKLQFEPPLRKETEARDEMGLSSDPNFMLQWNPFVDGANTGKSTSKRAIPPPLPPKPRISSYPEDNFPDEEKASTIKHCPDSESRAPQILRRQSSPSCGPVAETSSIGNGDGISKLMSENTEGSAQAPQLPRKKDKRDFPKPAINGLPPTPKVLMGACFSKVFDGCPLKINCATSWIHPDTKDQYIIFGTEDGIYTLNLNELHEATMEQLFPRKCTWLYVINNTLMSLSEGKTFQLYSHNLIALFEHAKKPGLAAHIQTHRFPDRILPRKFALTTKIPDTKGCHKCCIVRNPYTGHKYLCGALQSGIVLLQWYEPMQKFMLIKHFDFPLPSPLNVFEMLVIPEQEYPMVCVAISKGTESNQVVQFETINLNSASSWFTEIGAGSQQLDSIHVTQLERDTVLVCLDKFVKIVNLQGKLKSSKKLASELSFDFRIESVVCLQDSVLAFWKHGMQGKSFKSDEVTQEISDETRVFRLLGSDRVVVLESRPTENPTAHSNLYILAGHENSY
For assay [3], the target named is T2, Tyrosine--tRNA ligase, cytoplasmic (Homo sapiens, UniProt P54577).
T2 sequence (P54577 whole entry): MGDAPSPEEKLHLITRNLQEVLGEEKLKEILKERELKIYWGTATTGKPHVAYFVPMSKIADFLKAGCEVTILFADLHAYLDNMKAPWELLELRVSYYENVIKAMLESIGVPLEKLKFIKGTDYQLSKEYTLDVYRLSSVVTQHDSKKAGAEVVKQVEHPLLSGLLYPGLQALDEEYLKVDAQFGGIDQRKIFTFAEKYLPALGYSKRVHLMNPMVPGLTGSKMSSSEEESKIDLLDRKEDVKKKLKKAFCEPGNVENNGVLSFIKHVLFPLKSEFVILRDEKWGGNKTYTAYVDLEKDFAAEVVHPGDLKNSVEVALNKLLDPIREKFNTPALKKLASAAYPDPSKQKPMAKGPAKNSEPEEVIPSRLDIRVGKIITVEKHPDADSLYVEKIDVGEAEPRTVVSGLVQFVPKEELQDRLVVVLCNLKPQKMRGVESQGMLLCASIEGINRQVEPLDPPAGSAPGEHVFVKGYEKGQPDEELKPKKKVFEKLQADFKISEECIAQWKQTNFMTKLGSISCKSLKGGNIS

The target in assay [4] is Mitogen-activated protein kinase 14 (Homo sapiens, UniProt Q16539).
Chain of Mitogen-activated protein kinase 14 (Q16539 whole entry): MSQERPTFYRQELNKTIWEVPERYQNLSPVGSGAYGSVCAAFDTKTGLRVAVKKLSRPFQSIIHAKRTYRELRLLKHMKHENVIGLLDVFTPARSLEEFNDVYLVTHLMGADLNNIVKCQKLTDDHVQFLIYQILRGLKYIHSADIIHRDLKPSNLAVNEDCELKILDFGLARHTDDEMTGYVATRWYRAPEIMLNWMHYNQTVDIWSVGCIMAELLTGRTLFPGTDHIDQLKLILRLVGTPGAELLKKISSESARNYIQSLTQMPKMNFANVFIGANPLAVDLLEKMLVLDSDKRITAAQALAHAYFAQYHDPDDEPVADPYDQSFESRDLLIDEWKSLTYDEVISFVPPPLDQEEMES
In assay [5] the target is Serine/threonine-protein kinase MRCK beta (Homo sapiens, UniProt Q9Y5S2).
Chain of Serine/threonine-protein kinase MRCK beta (Q9Y5S2 whole entry): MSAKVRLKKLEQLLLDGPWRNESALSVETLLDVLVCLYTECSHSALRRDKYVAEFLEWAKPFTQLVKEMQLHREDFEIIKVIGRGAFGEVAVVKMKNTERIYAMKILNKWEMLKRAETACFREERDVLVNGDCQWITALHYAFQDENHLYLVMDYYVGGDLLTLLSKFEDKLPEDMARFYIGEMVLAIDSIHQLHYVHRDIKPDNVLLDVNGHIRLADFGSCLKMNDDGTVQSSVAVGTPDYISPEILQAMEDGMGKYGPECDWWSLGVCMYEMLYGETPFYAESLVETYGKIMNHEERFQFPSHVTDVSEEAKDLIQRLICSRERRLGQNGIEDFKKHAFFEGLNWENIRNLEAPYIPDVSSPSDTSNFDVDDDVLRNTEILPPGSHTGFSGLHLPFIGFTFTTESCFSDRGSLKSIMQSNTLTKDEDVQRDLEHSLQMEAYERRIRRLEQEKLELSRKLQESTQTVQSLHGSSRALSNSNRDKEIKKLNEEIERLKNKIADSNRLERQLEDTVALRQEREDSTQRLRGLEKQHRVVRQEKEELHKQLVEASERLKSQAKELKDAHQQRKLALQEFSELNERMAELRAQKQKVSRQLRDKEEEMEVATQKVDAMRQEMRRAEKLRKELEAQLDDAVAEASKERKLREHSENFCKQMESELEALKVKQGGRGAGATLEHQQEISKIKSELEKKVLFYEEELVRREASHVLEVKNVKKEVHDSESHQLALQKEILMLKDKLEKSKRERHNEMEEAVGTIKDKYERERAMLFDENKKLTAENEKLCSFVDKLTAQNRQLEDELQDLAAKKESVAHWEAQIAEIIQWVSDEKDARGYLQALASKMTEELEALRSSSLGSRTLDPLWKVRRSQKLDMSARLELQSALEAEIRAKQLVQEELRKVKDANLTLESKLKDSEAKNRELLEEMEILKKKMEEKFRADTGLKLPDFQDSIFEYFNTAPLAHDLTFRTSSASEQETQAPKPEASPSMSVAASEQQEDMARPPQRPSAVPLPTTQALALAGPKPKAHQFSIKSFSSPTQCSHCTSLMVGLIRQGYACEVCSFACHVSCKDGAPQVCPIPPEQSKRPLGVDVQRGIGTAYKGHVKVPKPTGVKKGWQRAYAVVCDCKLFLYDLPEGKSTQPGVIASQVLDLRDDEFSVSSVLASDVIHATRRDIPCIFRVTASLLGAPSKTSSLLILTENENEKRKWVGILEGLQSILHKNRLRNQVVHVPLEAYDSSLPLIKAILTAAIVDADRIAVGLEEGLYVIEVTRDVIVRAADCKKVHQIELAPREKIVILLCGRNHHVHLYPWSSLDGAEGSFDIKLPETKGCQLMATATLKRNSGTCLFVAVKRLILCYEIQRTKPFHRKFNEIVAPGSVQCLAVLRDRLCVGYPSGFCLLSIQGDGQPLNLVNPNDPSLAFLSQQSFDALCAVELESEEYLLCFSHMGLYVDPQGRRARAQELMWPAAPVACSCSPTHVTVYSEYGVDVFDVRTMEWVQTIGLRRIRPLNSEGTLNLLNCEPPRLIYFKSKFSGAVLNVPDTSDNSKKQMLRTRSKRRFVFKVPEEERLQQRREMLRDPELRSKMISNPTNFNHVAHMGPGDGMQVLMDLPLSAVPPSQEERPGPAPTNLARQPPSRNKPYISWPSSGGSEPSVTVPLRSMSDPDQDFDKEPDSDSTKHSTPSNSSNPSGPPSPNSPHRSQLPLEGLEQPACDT
Another assay concerns the target T3, Ephrin type-A receptor 1 (Homo sapiens, UniProt P21709).
T3 sequence (P21709 whole entry): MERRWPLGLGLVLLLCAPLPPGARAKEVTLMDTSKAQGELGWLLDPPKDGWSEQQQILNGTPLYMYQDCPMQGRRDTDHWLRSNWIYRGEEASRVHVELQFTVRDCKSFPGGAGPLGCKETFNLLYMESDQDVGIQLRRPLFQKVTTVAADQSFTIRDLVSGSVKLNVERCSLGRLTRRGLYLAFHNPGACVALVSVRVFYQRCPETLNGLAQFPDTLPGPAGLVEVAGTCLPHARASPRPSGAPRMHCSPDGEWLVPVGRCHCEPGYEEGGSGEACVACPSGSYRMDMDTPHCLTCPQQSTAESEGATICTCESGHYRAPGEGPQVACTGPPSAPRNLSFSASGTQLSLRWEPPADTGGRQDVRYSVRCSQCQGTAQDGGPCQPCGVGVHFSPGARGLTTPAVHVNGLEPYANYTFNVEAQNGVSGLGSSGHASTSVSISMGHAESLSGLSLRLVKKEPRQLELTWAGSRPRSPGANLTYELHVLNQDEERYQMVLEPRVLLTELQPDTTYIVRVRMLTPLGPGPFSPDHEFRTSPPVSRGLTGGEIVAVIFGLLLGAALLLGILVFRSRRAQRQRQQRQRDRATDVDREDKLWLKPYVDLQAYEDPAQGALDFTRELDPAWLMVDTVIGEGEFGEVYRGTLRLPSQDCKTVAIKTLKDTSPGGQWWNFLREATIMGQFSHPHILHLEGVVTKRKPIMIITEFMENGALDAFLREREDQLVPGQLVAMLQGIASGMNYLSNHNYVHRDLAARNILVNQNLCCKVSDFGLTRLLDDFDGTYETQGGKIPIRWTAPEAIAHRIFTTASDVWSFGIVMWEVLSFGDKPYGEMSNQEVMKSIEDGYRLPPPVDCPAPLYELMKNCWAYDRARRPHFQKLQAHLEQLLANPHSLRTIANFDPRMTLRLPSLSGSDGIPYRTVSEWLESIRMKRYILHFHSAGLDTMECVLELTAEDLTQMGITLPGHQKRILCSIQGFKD

Assay [6] has as its target T4, NUAK family SNF1-like kinase 2 (Homo sapiens, UniProt Q9H093).
T4 sequence (Q9H093 whole entry): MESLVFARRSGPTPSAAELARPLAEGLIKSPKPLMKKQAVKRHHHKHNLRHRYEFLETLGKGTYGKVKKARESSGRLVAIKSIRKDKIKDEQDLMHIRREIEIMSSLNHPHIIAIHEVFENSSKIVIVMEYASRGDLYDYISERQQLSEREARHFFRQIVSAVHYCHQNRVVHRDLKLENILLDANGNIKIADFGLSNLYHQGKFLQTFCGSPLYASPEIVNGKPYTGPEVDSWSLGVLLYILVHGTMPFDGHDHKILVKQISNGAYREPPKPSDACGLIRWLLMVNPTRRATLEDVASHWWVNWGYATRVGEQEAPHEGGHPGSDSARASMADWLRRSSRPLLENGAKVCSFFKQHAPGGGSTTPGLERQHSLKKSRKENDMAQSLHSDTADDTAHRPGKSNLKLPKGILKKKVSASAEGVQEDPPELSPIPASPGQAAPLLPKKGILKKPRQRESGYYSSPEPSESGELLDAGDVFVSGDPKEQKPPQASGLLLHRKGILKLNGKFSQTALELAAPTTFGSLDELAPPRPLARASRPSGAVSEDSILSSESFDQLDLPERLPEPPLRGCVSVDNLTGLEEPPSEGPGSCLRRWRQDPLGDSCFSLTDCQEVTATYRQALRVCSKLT

`O=C(Nc1cc(C(F)(F)F)cc(C(F)(F)F)c1)c1cc(Cl)ccc1O` [IMD-0354]: the Kd is > 30 µM (inactive) in assay [1]; 1.46 µM (active) in assay [2]; > 30 µM (inactive) in assay [3]; > 30 µM (inactive) in assay [4]; > 30 µM (inactive) in assay [5]; > 30 µM (inactive) at Ephrin type-A receptor 1. In assay [6], the Kd is > 30 µM (inactive).

With `CNC(=O)c1cccc2cc(Oc3ccnc4cc(OCC5(N)CC5)c(OC)cc34)ccc12` [LUCITANIB], the Kd (in assay [1]; in assay [2]; in assay [3]; in assay [4]; in assay [5]; on Ephrin type-A receptor 1) was > 30 µM (inactive) each time. For the same molecule, in assay [6], the Kd is > 30 µM (inactive).

As for `CNC(=O)c1nn(C)c2c1C(C)(C)Cc1cnc(Nc3ccc(N4CCN(C)CC4)cc3)nc1-2` [MILCICLIB], the Kd in assay [1] is > 30 µM (inactive); in assay [2], 10 µM (active); in assay [3], > 30 µM (inactive); in assay [4] it was > 30 µM (inactive); in assay [5], > 30 µM (inactive); on Ephrin type-A receptor 1, > 30 µM (inactive). In addition, the Kd in assay [6] is > 30 µM (inactive).

With `NC1(c2ccc(-c3nc4ccn5c(=O)[nH]nc5c4cc3-c3ccccc3)cc2)CCC1` [MK-2206], the Kd (in assay [1]; in assay [2]; in assay [3]; in assay [4]; in assay [5]; on Ephrin type-A receptor 1) was > 30 µM (inactive) throughout. The Kd in assay [6] was > 30 µM (inactive).

`CN(C[C@@H]1COCCO1)S(=O)(=O)Nc1ccc2ccc3ncc(-c4cnn(C)c4)cc3c(=O)c2c1` [MK-2461]: the Kd (in assay [1]; in assay [2]; in assay [3]; in assay [4]; in assay [5]; at Ephrin type-A receptor 1) was > 30 µM (inactive) each time. Besides, the Kd in assay [6] is > 30 µM (inactive).

Consider `Cn1cc(-c2cnc3ccc4ccc(CS(=O)(=O)NCc5ccccn5)cc4c(=O)c3c2)cn1` [MK-8033], for which the Kd (in assay [1]; in assay [2]; in assay [3]; in assay [4]; in assay [5]; on Ephrin type-A receptor 1) was > 30 µM (inactive) in each case. Further, the Kd in assay [6] was > 30 µM (inactive).

In the case of `FC(F)(F)c1ccc(/C=C/c2nc(COc3ccc(CCCCn4ccnn4)cc3)co2)cc1` [MUBRITINIB], the Kd (in assay [1]; in assay [2]; in assay [3]; in assay [4]; in assay [5]; at Ephrin type-A receptor 1) was > 30 µM (inactive) in each case. The Kd in assay [6] is > 30 µM (inactive).

Regarding `CCOc1cc2ncc(C#N)c(Nc3ccc(F)c(Cl)c3)c2cc1NC(=O)/C=C/CN(C)C` [PELITINIB], the Kd in assay [1] was > 30 µM (inactive); in assay [2] it was 0.042 µM (active); in assay [3] it was > 30 µM (inactive); in assay [4] it was > 30 µM (inactive); in assay [5], > 30 µM (inactive); on Ephrin type-A receptor 1, > 30 µM (inactive). In assay [6], the Kd was > 30 µM (inactive).

`Cc1nc(Nc2n[nH]c3c2CN(C(=O)N[C@H](CN(C)C)c2ccccc2)C3(C)C)c2sccc2n1` [PF-03758309]: the Kd in assay [1] was 1.23 µM (active); in assay [2], > 30 µM (inactive); in assay [3], > 30 µM (inactive); in assay [4], > 30 µM (inactive); in assay [5] it was > 30 µM (inactive); at Ephrin type-A receptor 1, > 30 µM (inactive). Also, the Kd in assay [6] was > 30 µM (inactive).

For `Cc1cnc(NC(=O)Nc2cc(Br)c(C)cc2OC[C@@H]2CNCCO2)cn1` [RABUSERTIB], the Kd (in assay [1]; in assay [2]; in assay [3]; in assay [4]; in assay [5]; at Ephrin type-A receptor 1) was > 30 µM (inactive) each time. The Kd in assay [6] is > 30 µM (inactive).

In the case of `CO[C@H]1C[C@@H]2CC[C@@H](C)[C@@](O)(O2)C(=O)C(=O)N2CCCC[C@H]2C(=O)O[C@H]([C@H](C)C[C@@H]2CC[C@@H](OP(C)(C)=O)[C@H](OC)C2)CC(=O)[C@H](C)/C=C(\C)[C@@H](O)[C@@H](OC)C(=O)[C@H](C)C[C@H](C)/C=C/C=C/C=C/1C` [RIDAFOROLIMUS], the Kd (in assay [1]; in assay [2]; in assay [3]; in assay [4]; in assay [5]; at Ephrin type-A receptor 1) was > 30 µM (inactive) throughout. Moreover, in assay [6], the Kd is > 30 µM (inactive).

`N#CC1(c2ccc(NC(=O)c3cccnc3NCc3ccncc3)cc2)CCCC1` [RIVOCERANIB]: the Kd (in assay [1]; in assay [2]; in assay [3]; in assay [4]; in assay [5]; on Ephrin type-A receptor 1) was > 30 µM (inactive) each time. For the same molecule, the Kd in assay [6] was > 30 µM (inactive).

For `O=c1[nH]ccc2cc(OC3CCNCC3)ccc12` [SAR-407899 FREE BASE], the Kd in assay [1] was > 30 µM (inactive); in assay [2], > 30 µM (inactive); in assay [3], > 30 µM (inactive); in assay [4], > 30 µM (inactive); in assay [5], 0.016 µM (active); on Ephrin type-A receptor 1, > 30 µM (inactive). For the same molecule, in assay [6], the Kd was > 30 µM (inactive).

One may read the Kd as the concentration at which binding is half-saturated.
